In patent US10959981B2, “Composition for preventing or treating climacteric symptoms comprising soybean extract comprising coumestrol as an active ingredient” (AMOREPACIFIC CORPORATION, priority 2014, dated 2021):

How the values were obtained:
[1] = system: climacteric mouse models induced by oophorectomy; assay: Body weight change of oophorectomy-induced climacteric mice over 14 weeks; format: in vivo; conditions: oophorectomized hairless mice; feed for 14 weeks; extract 500 mg/kg, coumestrol 0.5 mg/kg; FIG. 1
Experimental: Female hairless mice weighing 26-27 g were used as experimental animals. The experimental animals were bred under a condition of 23±1° C., 40-60% humidity and 12-hour light/dark cycles. Basic feed and drinking water were provided ad libitum. On the previous day before blood taking, drinking water was provided only. Oophorectomy was conducted aseptically after anesthetizing 15-week-old hairless mice and disinfecting with 70% ethanol. After incising skin tissue about 2-3 cm along the spinal cord below one lateral dorsal part, the muscle and peritoneum at the part where an ovary is located were incised by 1.5 cm to expose the ovary. After removing the ovary, the peritoneum, muscle and skin were sutured using silk suture. The ovary at the opposite side was also removed by the same method. For a control group, a sham operation of incising the muscle and peritoneum but suturing without removal of the ovary was conducted. After the surgical operation, the mice were allowed to recover for a week. […] The administration dosage for the coumestrol administration group was determined such that the amount of coumestrol in the germinated and fermented bean was the same as that of the coumestrol 0.5 mg/kg administration group (content of coumestrol in the germinated and fermented bean extract=0.1%; 500 mg/kg×0.1%=0.5 mg/kg). […]

[2] = system: climacteric mouse models induced by oophorectomy; assay: Bone density by dual-energy X-ray absorptiometry in oophorectomized mice; format: in vivo; conditions: oophorectomized hairless mice, 30 weeks old; feed for 14 weeks; extract 500 mg/kg, coumestrol 0.5 mg/kg; control group 0.1975, oophorectomy group 0.1821
Experimental: (§1) Female hairless mice weighing 26-27 g were used as experimental animals. The experimental animals were bred under a condition of 23±1° C., 40-60% humidity and 12-hour light/dark cycles. Basic feed and drinking water were provided ad libitum. On the previous day before blood taking, drinking water was provided only.
(§2) Oophorectomy was conducted aseptically after anesthetizing 15-week-old hairless mice and disinfecting with 70% ethanol. After incising skin tissue about 2-3 cm along the spinal cord below one lateral dorsal part, the muscle and peritoneum at the part where an ovary is located were incised by 1.5 cm to expose the ovary. After removing the ovary, the peritoneum, muscle and skin were sutured using silk suture. The ovary at the opposite side was also removed by the same method. For a control group, a sham operation of incising the muscle and peritoneum but suturing without removal of the ovary was conducted. […]
(§3) The experimental animals were divided into the control group (sham operation group) and an oophorectomy group. […] The administration dosage for the coumestrol administration group was determined such that the amount of coumestrol in the germinated and fermented bean was the same as that of the coumestrol 0.5 mg/kg administration group (content of coumestrol in the germinated and fermented bean extract=0.1%; 500 mg/kg×0.1%=0.5 mg/kg). […]

[3] = system: climacteric mouse models induced by oophorectomy; assay: Skin thickness measured with calipers in oophorectomized mice; format: in vivo; conditions: oophorectomized hairless mice, 30 weeks old; extract 500 mg/kg, coumestrol 0.5 mg/kg in feed for 14 weeks; FIG. 2
Experimental: as §1
as §2, with “method.” for “method. For a control group, a sham operation of incising the muscle and peritoneum but suturing without removal of the ovary was conducted.”
as §3
Skin thickness was measured for the same test group (30 weeks old) as that in Test Example 1 using calipers (HEPT, Cjina).

MMP-1 = MMP-1 expression in UV-irradiated 3D artificial skin; format: cell-based; conditions: 20 mJ UV, 0.1 ppm coumestrol or 100 ppm extract, relative to the non-UV-irradiated group as 100, UV-irradiated group 142.4%
Experimental: (§4) It is known that the skin in the climacteric period is vulnerable to skin irritation such as UV because of decreased skin thickness. 3D artificial skin was prepared and the effect of the germinated and fermented bean extract on the skin was tested after UV irradiation.
(§5) A matrix was prepared by mixing 2.64×10^5 fibroblasts in a collagen solution. After seeding 5×10^6 keratinocytes thereon, differentiation into artificial skin was induced by treating with 1.2 mM calcium. 2 weeks later, after irradiating 20 mJ UV on the cells and treating with 0.1 ppm coumestrol or 100 ppm germinated and fermented bean extract, the culture medium was recovered and the expression levels of MMP-1 and procollagen were measured in the same manner as in Test Example 5. The result is given in Table 2 relative to the non-UV-irradiated group as 100.

procollagen = assay: Procollagen expression in UV-irradiated 3D artificial skin; format: cell-based; conditions: 20 mJ UV, 0.1 ppm coumestrol or 100 ppm extract, relative to the non-UV-irradiated group as 100, UV-irradiated group 68.7%
Experimental: as §4, §5

`O=c1oc2cc(O)ccc2c2oc3cc(O)ccc3c12` [coumestrol] was tested, and the weight gain [1] was “significantly less than that of the oophorectomy group”, the Bone density [2] was 0.1902 g/cm^2 and the skin thickness [3] was “the same as that of the oophorectomy group”. For the same compound, the MMP-1 (MMP-1) was 122.8% and the Procollagen (procollagen) was 82.4%.
